# Test results reported in paper PMC3277506, “Extra-Renal Elimination of Uric Acid via Intestinal Efflux Transporter BCRP/ABCG2” (PLoS ONE, 2012).
# Where two headings read alike, the source gives them in different places.
# What was measured:
# [1] = Recovery of [14C]uric acid after intravenous administration in oxonate-treated rats; assay type: in vivo; conditions: percentage of dose; for dose excreted: male, Wistar, rat, iv, 2 µCi/rat
# Description: Male Wistar rats (280±30 g body weight) used in the present study were treated with potassium oxonate, a uric acid oxidase (uricase) inhibitor. Oxonate-treated rats were established as described previously, [48]. Briefly, rats were anesthetized with 50% urethane (2 mL/kg) and infused with 0.9% NaCl, 0.5% oxonate and 4% mannitol solution from the femoral vein at the flow rate of 3 mL/hr. As a bolus, 0.9% NaCl, 1.5% oxonate and 4% mannitol solution was administered from the jugular vein at 6 mL/kg. After equilibration for 80 min, blood, urine and bile samples were collected at 20-min intervals. When [^14C]uric acid (2 µCi/rat) was used, it was intravenously injected from the jugular vein after oxonate treatment for 80 min. In order to suppress the uricolysis of [^14C]uric acid by intestinal flora, animals received orally non-absorbed antibiotics, polymyxin B, kanamycin, and vancomycin at daily doses of 50, 50 and 20 mg/kg, respectively, for 7 days before this animal study. Urine and bile were collected at 20-min intervals, and blood samples were drawn at 1, 5, 10, 20, 40, 60, 80, 100 and 120 min. Urine and bile were collected from bladder and bile ducts, respectively, and blood from the jugular vein. In mice, urine was collected for 24 hours by using metabolic cages (Natsume, Tokyo, Japan).
# hMDR1 = biological target: T1, hMDR1 (Homo sapiens, UniProt P08183); experiment: [14C]uric acid uptake by hMDR1-expressing membrane vesicles; assay type: biochemical; conditions: [14C]uric acid 20 µM, 5 min, 37°C, 4 mM ATP or AMP
# T1 construct: purchased GenoMembrane Inc. (Yokohama, Japan); host or cells: Sf9 cells
# Description: hBCRP/rBcrp, hMRP2/rMrp2, or hMDR1-expressing membrane vesicles prepared from Sf9 cells were purchased from GenoMembrane Inc. (Yokohama, Japan). Uptake experiments were conducted as described previously. Briefly, after a pre-incubation for 5 min at 37°C, membrane vesicles (50 µg protein/50 µL final reaction volume) were incubated for 5 min at 37°C in the presence of 4 mM ATP or AMP in assay buffer (1 M KCl, 1 M MgCl2, and 100 mM MOPS-Tris, pH 7.0) containing [^14C]uric acid (1 µCi/mL). The uptake reaction was terminated by adding 1 mL ice-cold washing buffer (1 M KCl, and 100 mM MOPS-Tris, pH 7.0) to the membrane solution, and the mixture was rapidly filtered through a nitrocellulose filter (0.45 µm pore size, Millipore, Bedford, MA). The filters were washed twice with 5 mL ice-cold washing buffer. The filters were dried and dissolved in Clearsol-I for quantitation of radioactivity.
# [2] = Bidirectional transcellular transport of [14C]uric acid in Caco-2 cells; assay type: in vitro ADME, human; conditions: human, Control (no inhibitor)
# Description: Caco-2 cells were obtained from the American Type Culture Collection (Rockville, MD). Caco-2 cells were cultured in Dulbecco's modified Eagle's medium (D-MEM) (Invitrogen, Carlsbad, CA) supplemented with 10% (v/v) fetal bovine serum (Invitrogen), 100 units/mL benzylpenicillin, 100 µg/mL streptomycin, 1% (v/v) MEM non-essential amino acid solution (Invitrogen) at 37°C under an atmosphere of 5% CO2 in air. For bidirectional transport studies, Caco-2 cells were cultured on Transwell filter membrane inserts (BD Falcon, surface area 0.9 cm^2 and pore size 3 µm) at a density of 6.4×10^4 cells/cm^2 for 21 days before use for each experiment. […] Inhibitor was added to only apical side. Transport of [^14C]uric acid was measured in two directions, namely apical (AP)-to-basal (BL) and BL-to-AP directions. An aliquot of transport buffer was obtained from the donor side at 5 min for measurement of initial concentration, and from the receiver side at 30, 60, 90 and 120 min. Transport studies were performed at 37°C and pH 7.4.
# The apparent permeability (Papp, cm/sec) of [^14C]uric acid across the cell monolayer was calculated using the following equation: [drawing 4] where Q is the amount of [^14C]uric acid transported over time t. Cd is the initial concentration in the donor side and A is the surface area of membrane.
# hBCRP = biological target: T2, hBCRP (Homo sapiens, UniProt Q9UNQ0); set-up: method as in PMID 20368174; conditions: read-out: Km of uric acid to hBCRP; cited from earlier work
# T2 construct: purchased GenoMembrane Inc. (Yokohama, Japan); host or cells: Sf9 cells
# T2 sequence (Q9UNQ0 1-655): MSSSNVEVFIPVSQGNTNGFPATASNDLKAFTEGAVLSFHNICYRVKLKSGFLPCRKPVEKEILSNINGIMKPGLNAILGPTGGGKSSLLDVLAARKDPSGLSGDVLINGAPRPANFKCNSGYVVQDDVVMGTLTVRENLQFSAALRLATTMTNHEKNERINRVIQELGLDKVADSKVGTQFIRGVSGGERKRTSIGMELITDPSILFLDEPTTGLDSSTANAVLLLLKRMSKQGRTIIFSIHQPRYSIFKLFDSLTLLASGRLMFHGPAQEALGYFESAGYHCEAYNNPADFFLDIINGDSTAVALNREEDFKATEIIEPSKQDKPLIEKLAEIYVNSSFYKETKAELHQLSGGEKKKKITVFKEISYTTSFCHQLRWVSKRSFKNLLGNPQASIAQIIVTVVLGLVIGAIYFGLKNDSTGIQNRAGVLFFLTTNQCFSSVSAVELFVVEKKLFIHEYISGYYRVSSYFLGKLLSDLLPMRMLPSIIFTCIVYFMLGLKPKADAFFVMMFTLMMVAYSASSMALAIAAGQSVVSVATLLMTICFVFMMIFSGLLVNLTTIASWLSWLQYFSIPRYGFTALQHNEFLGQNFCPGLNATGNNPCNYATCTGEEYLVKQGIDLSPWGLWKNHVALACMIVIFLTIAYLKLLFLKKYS
# T1 sequence (P08183 whole entry): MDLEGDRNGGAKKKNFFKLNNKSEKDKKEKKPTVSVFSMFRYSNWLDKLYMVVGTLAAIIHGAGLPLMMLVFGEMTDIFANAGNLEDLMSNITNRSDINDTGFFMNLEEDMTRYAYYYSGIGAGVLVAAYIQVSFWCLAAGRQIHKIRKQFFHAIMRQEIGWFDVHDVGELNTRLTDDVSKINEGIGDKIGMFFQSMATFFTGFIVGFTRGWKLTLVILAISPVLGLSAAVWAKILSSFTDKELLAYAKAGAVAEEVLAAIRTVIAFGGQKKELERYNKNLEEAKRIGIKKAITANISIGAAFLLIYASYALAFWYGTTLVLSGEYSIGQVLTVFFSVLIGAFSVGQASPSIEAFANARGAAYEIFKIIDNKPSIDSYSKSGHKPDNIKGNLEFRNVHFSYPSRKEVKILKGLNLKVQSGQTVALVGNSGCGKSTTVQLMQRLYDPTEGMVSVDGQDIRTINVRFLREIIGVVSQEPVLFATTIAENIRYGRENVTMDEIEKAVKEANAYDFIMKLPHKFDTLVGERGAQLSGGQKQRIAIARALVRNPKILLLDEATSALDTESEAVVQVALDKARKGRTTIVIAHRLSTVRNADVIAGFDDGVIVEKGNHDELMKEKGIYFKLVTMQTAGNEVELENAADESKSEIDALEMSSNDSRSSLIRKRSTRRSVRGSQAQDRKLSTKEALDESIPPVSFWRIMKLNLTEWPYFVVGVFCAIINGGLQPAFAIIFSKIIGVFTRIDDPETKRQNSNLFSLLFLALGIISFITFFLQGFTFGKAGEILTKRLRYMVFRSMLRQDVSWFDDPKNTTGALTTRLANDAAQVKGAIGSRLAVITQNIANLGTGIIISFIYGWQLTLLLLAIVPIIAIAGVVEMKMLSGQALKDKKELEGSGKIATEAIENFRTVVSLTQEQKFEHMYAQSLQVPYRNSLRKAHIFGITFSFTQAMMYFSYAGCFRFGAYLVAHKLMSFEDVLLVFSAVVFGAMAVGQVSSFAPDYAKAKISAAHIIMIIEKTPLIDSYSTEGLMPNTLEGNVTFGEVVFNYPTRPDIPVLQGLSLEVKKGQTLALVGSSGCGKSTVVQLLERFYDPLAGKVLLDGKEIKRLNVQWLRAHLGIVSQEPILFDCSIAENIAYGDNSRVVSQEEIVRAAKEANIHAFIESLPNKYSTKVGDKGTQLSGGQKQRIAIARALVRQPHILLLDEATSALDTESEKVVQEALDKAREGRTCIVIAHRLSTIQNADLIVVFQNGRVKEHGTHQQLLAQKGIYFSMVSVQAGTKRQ
smiles,measurement,setting,value
O=c1[nH]c(=O)c2[nH]c(=O)[nH]c2[nH]1 [uric acid],dose excreted,"[1]; bile + intestine, up to 120 min, read-out: Recovery of [14C]uric acid, Bile+Intestine",9.58%
same,dose excreted,"[1]; bile, up to 120 min, read-out: Recovery of [14C]uric acid, Bile",0.68%
same,dose excreted,"[1]; urine, up to 120 min, read-out: Recovery of [14C]uric acid, Urine",42.6%
same,"Recovery of [14C]uric acid, Cp×Vd (remaining in the body)","[1]; iv 2 µCi/rat, 2 hrs after administration, rough estimation from distribution volume and plasma concentration",4.55%
same,"Recovery of [14C]uric acid, Intestine (luminal contents)","[1]; iv 2 µCi/rat, up to 120 min",8.90%
same,"Recovery of [14C]uric acid, Urine","[1]; iv 2 µCi/rat, up to 120 min",42.58%
same,ATP-dependent uric acid uptake,hMDR1,inactive
same,efflux ratio at 120 min,"[2]; Caco-2, pH 7.4, BL-to-AP / AP-to-BL permeability",2.13 ± 0.19
same,Papp A→B at 120 min,"[2]; Caco-2 monolayer, 37°C, pH 7.4, read-out: Permeability AP to BL",0.81 ± 0.02 ×10⁻⁶ cm/s
same,Papp B→A at 120 min,"[2]; Caco-2 monolayer, 37°C, pH 7.4, read-out: Permeability BL to AP",1.73 ± 0.11 ×10⁻⁶ cm/s
same,Km,hBCRP,8.24 mM
